Results on eight compounds are retold here after ChEMBL document CHEMBL1123313, “Folate analogues. 25. Synthesis and biological evaluation of N10-propargylfolic acid and its reduced derivatives” (J Med Chem, 1986).

In brackets after ≈: the same amount, converted by molar mass. Bounds are passed on as bounds.

Assay [1] relates to Enterococcus faecium. Description: Inhibitory activity against Streptococcus faecium MTX-resistant. In kind it is functional, organism-based.
The target in assay [2] is T1, Thymidylate synthase (Lactobacillus casei, UniProt P00469).
T1 sequence (P00469 whole entry): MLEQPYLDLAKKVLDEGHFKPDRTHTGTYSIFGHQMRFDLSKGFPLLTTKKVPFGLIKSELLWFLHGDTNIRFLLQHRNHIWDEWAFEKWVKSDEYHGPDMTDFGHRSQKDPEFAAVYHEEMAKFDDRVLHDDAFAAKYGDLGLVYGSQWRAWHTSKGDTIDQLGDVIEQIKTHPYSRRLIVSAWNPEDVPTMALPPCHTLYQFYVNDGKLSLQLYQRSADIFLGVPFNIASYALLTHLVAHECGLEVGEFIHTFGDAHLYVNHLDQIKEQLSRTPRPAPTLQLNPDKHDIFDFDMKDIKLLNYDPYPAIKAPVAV
Description: Inhibitory activity against thymidylate synthase derived from Lactobacillus casei. On the set-up: species or system Lacticaseibacillus casei.

Another assay addresses Dihydrofolate reductase (Lactobacillus casei, UniProt P00381).
For assay [3], the system named is Lacticaseibacillus casei. As to the kind of experiment: Inhibitory activity against Lactobacillus casei ATCC 7469. In kind it is functional, organism-based.
Assay [4] has as its system Enterococcus faecium. As to the kind of experiment: Inhibitory activity against Streptococcus faecium ATCC 8043. In kind it is functional, organism-based.
Assay [5] concerns Lacticaseibacillus casei. Description: Inhibitory activity against Lactobacillus casei MTX-resistant. The assay is classed as functional, organism-based.
For assay [6], the target named is T2, Thymidylate synthase (Mus musculus, UniProt P07607). Description: Inhibitory activity against the thymidylate synthase in the Permeabilized L1210 cells. In kind it is cell-based.
T2 sequence (P07607 whole entry): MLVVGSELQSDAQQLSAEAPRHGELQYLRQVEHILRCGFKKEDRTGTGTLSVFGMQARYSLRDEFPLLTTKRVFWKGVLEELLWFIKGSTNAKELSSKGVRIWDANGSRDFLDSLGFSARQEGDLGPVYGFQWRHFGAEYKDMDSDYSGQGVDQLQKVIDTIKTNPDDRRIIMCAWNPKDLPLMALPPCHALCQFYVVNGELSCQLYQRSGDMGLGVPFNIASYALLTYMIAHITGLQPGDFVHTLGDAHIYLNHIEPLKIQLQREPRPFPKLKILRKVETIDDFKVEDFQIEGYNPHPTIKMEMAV
The target of assay [7] is T2, Thymidylate synthase. As to the kind of experiment: Inhibitory activity against thymidylate synthase in the intact L1210 cells. In kind it is cell-based.
Setting [8] is: Lacticaseibacillus casei, read-out: IC50.

Chain of Dihydrofolate reductase (P00381 whole entry): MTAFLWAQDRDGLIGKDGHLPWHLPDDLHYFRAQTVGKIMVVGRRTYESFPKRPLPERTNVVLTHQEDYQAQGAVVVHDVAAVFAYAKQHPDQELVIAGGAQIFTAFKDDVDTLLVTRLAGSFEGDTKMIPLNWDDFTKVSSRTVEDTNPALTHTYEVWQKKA
Description for Dihydrofolate reductase: Inhibitory activity against dihydrofolate reductase derived from Lactobacillus casei

Regarding `C#CCN(Cc1cnc2nc(N)nc(O)c2n1)c1ccc(C(=O)O)cc1`, the IC50 is over 2000 ng/mL with Enterococcus faecium [1]; over 290 µM against Thymidylate synthase [2]; over 100 µM against Dihydrofolate reductase; over 2000 ng/mL in the assay on Lacticaseibacillus casei [3]; 0.76 ng/mL (≈ 0.00217 µM) with Enterococcus faecium [4]; over 2000 ng/mL with Lacticaseibacillus casei [5] (setting [8]).
As to `C#CCN(Cc1cnc2nc(N)nc(O)c2n1)c1ccc(C(=O)NC(CCC(=O)O)C(=O)O)cc1` (stereo not drawn), the IC50 is over 2000 ng/mL in the assay with Enterococcus faecium [1]; 3.9 µM against Thymidylate synthase [2]; 7.5 µM at Thymidylate synthase [6]; over 100 µM on Dihydrofolate reductase; over 2000 ng/mL in the assay with Lacticaseibacillus casei [3]; 0.56 ng/mL (≈ 0.00117 µM) in the assay with Enterococcus faecium [4]. The figures for the IC50 at Thymidylate synthase [7] and with Lacticaseibacillus casei [5] (setting [8]) were over 3000 µM and over 2000 ng/mL, respectively.
In the case of `CN(Cc1cnc2nc(N)nc(O)c2n1)c1ccc(C(=O)NC(CCC(=O)O)C(=O)O)cc1` (stereo not drawn), the IC50 against Thymidylate synthase [6] is 660 µM; at Thymidylate synthase [7], over 1000 µM.
On to `Nc1nc2ncc(CNc3ccc(C(=O)N[C@@H](CCC(=O)O)C(=O)O)cc3)nc2c(=O)[nH]1` [FOLIC ACID], for which the IC50 on Thymidylate synthase [6] is 1800 µM; against Thymidylate synthase [7], over 1000 µM.
As for `C#CCN(CC1=Nc2c(O)nc(N)nc2NC1)c1ccc(C(=O)NC(CCC(=O)O)C(=O)O)cc1` (stereo not drawn), the IC50 in the assay with Enterococcus faecium [1] is 24 ng/mL (≈ 0.0498 µM); at Thymidylate synthase [2] it was 50 µM; on Dihydrofolate reductase, over 50 µM; in the assay on Lacticaseibacillus casei [3], 36 ng/mL (≈ 0.0748 µM); in the assay on Enterococcus faecium [4], 0.13 ng/mL (≈ 0.00027 µM); in the assay on Lacticaseibacillus casei [5] (setting [8]), over 2000 ng/mL.
On to `C#CCN(Cc1ccc2[nH]c(N)nc(=O)c2c1)c1ccc(C(=O)NC(CCC(=O)O)C(=O)O)cc1` (stereo not drawn), for which the IC50 with Lacticaseibacillus casei [5] (setting [8]) is 2000 ng/mL (≈ 4.19 µM).
Consider `CN(Cc1cnc2nc(N)nc(N)c2n1)c1ccc(C(=O)N[C@@H](CCC(=O)O)C(=O)O)cc1` [METHOTREXATE], for which the figures for the IC50 in the assay on Lacticaseibacillus casei [3] and in the assay on Lacticaseibacillus casei [5] were 0.02 ng/mL (≈ 4.4e-05 µM) and over 500000 ng/mL, respectively.
Turning to `C#CCN(CC1CNc2nc(N)nc(O)c2N1)c1ccc(C(=O)NC(CCC(=O)O)C(=O)O)cc1` (stereo not drawn), the IC50 in the assay on Enterococcus faecium [1] is over 2000 ng/mL; on Thymidylate synthase [2], 32 µM; on Dihydrofolate reductase, over 140 µM; in the assay on Lacticaseibacillus casei [3] it was over 2000 ng/mL; in the assay with Enterococcus faecium [4], 0.08 ng/mL (≈ 0.000165 µM); in the assay on Lacticaseibacillus casei [5] (setting [8]), over 2000 ng/mL.
